Measured values reported in patent US20030194750A1, “Methods for treatment of diseases where GSK 3-beta is desired, and methods to identify compounds usefule for that” (priority 2002, published 2003).
Where two headings read alike, the source gives them in different places.

Legend:
[1] = molecular target: T1, GST-cGB-PDE5 fusion protein (Homo sapiens, UniProt O76074); assay: cGMP binding assay with GST-cGB-PDE5 fusion protein; conditions: for competition with cGMP binding at high concentration: 100 μM compound vs cGMP 2 μM
T1 construct: made in house; host or cells: E. coli BL21 (DE3)
T1 sequence (O76074 46-539 limits assumed): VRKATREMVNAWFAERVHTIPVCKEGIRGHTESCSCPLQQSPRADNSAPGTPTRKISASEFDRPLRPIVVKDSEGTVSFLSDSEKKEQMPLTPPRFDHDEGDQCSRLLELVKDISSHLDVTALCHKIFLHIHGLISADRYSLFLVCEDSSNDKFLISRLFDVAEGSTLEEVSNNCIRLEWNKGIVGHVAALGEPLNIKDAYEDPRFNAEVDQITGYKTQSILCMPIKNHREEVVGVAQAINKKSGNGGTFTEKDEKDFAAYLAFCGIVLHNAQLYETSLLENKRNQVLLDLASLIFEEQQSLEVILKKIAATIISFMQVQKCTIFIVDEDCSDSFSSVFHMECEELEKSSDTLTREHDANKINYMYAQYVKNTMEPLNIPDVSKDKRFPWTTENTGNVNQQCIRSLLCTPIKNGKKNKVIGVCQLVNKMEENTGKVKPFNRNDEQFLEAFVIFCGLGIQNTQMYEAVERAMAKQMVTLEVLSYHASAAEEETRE
Protocol: 5′-3′, Inc. kits for total RNA followed by oligo (dT) column purification of mRNA are used with HT-29 cells. […] It is then cloned into pGEX-5X-3 glutathione-S-transferase (GST) fusion vector (Pharmacia Biotech) with tac promoter, and EcoRI and XhoI cut sites. The fusion vector is then transfected into E. Coli BL21 (DE3) bacteria (Invitrogen). The transfected BL21 bacteria is grown to log phase, and then IPTG is added as an inducer. The induction is carried at 20° C. for 24 hrs. The bacteria are harvested and lysed. The soluble cell lysate is incubated with GSH conjugated Sepharose 4B (GSH-Sepharose 4B). The GST-cGB-PDE5 fusion protein can bind to the GSH-Sepharose beads, and the other proteins are washed off from beads with excessive cold PBS.
Then, the mixture is transferred to Brandel MB-24 cell harvester with GF/B as the filter membrane followed by 2 washes with 10 mL of cold 5 mM potassium buffer( pH 6.8). The membranes are then cut out and transferred to scintillation vials followed by the addition of 1 mL of H2O and 6 mL of Ready Safe™ liquid scintillation cocktail to each vial. The vials are counted on a Beckman LS 6500 scintillation counter.
The quenching by filter membrane or other debris are also calibrated.

GSK3β = assay: Western blot of GSK3β-phospho-ser9 in SW480 cells; format: cell-based, human; conditions: various concentrations, 48 hours, vs 0 concentration
Protocol: (§1) 50 μg protein/lane were analyzed by Western blot analysis using specific anti-PKG1β and anti-GSK3β-phospho-ser9 antibodies.

PKG1β = assay: Western blot of PKG1β in SW480 cells; format: cell-based, human; conditions: various concentrations, 48 hours
Protocol: as §1

PKG = PKG activity assay on lysates of drug-treated SW480 colon cancer cells (32P phosphorylation of PDE5/GST substrate); format: cell-based, human; conditions: SW480 cells treated 48 hrs; exisulind 200, 400, 600 μM, E4021 0.1, 1, 10 μM; assay with and without added cGMP
Protocol: A compound that inhibits all these types of PDE is desirable, accordingly. Below, we provide examples of such PDE-inhibiting compounds.
SW 480 is known to contain the APC mutation. About 5 million SW480 cells in RPMI 5% serum are added to each of 8 dishes:
2-10 cm dishes - - - 30 μL DMSO vehicle control (without drug),
3-10 cm dishes - - - 200 μM, 400 μM, 600 μM exisulind in DMSO, and
The dishes are incubated for 48 hrs at 37° C. in 5% CO2 incubator.
The liquid media are aspirated from the dishes (the cells will attach themselves to the dishes). The attached cells are washed in each dish with cold PBS, and 200 μL cell lysis buffer (i.e., 50 mM Tris-HCl, 1% NP-40, 150 mM NaCl, 1 mM EDTA, 1 mM Na3VO4, 1 mM NaF, 500 μM IBMX with proteinase inhibitors) is added to each dish. Immediately after the cell lysis buffer is added, the lysed cells are collected by scraping the cells off each dish. The cell lysate from each dish is transferred to a microfuge tube, and the microfuge tubes are incubated at 4° C. for 15 minutes while gently agitating the microfuge tubes to allow the cells to lyse completely. […]
For each control or drug cell lysate sample to be evaluated, the reaction is started by adding phosphorylation buffer containing 10 μCi ^32P-γ-ATP solution (200 μM ATP, 4.5 mM MgCl; 5 mM KH2PO4; 5 mM K2HPO4;) to each mixture. […]

native bovine PDE5 = native bovine PDE5 (Bos taurus, UniProt Q28156); conditions: read-out: Kd of cGMP binding; cited from earlier work

SMILES: CCCCOC1C2OP(=O)(O)OCC2OC1n1cnc2c(N)ncnc21 (stereo not shown) [2′-O-butyl-cAMP]
- competition with cGMP for the cGMP binding sites ([1]; 3H-cGMP 2 μM, 22° C., 1 hour): did not compete with cGMP in binding

SMILES: CCCCOC1C2OP(=O)(O)OCC2OC1n1cnc2c(=O)[nH]c(N)nc21 (stereo not shown) [2′-O-butyl-cGMP]
- competition with cGMP for the cGMP binding sites ([1]; 3H-cGMP 2 μM, 22° C., 1 hour): did not compete with cGMP in binding

SMILES: COc1cc(/C=C2/C(C)=C(CC(=O)NCc3ccccc3)c3cc(F)ccc32)cc(OC)c1OC [Compound A, 1H-indene-3-acetamide, 5-fluoro-2-methyl-N-(phenylmethyl)-1-[(3,4,5-trimethoxyphenyl)methylene]-, (1Z)]
- GSK3β inactivation by Ser9 phosphorylation (GSK3β): inactivated in vivo by phosphorylation of its Ser9
- PKG1 induction (PKG1β): PKG1 induction in a dose-dependent manner

SMILES: Nc1ncnc2c1ncn2[C@@H]1O[C@@H]2COP(=O)(O)O[C@H]2[C@H]1O [Cyclic AMP]
- competition with cGMP for the cGMP binding sites [1]: did not compete with cGMP in binding

SMILES: O=c1[nH]cnc2c1ncn2[C@@H]1O[C@@H]2COP(=O)(O)O[C@H]2[C@H]1O [Cyclic IMP]
- competition with cGMP binding at high concentration [1]: can partially compete with cGMP

SMILES: Nc1nc2c(nc(Br)n2[C@@H]2O[C@@H]3COP(=O)(O)O[C@H]3[C@H]2O)c(=O)[nH]1 [Example 8-bromo-cGMP, 8-bromo-cGMP]
- competition with cGMP binding at high concentration [1]: can partially compete with cGMP

SMILES: O=C([O-])C1CCN(c2nc(NCc3ccc4c(c3)OCO4)c3cc(Cl)ccc3n2)CC1.[Na+] [Example E4021]
- competition with cGMP for the cGMP binding sites ([1]; 3H-cGMP 2 μM, 22° C., 1 hour): None of the PDE5 inhibitors showed any competition with cGMP in binding
- PKG activity relative to control (PKG): do not exhibit PKG activation relative to control

SMILES: CSc1ccc(/C=C2/C(C)=C(CC(=O)O)c3cc(F)ccc32)cc1 [Sulindac sulfide]
- competition with cGMP for the cGMP binding sites ([1]; 3H-cGMP 2 μM, 22° C., 1 hour): None of the PDE5 inhibitors showed any competition with cGMP in binding

SMILES: Nc1ccn([C@@H]2O[C@@H]3COP(=O)(O)O[C@H]3[C@H]2O)c(=O)n1 [cCMP, cyclic CMP]
- competition with cGMP for the cGMP binding sites ([1]; 3H-cGMP 2 μM, 22° C., 1 hour): did not compete with cGMP in binding

SMILES: Nc1nc2c(ncn2[C@@H]2O[C@@H]3COP(=O)(O)O[C@H]3[C@H]2O)c(=O)[nH]1 [cGMP, cyclic 3′,5′-guanosine monophosphate]
- binding of cGMP to the fusion protein [1]: specifically bound to GST-cGB-PDE5 protein
- Kd ([1]; read-out: Kd of cGMP binding, two cGMP binding sites): 1600 ± 200 nM
- Kd (native bovine PDE5): 1300 nM

SMILES: O=c1ccn([C@@H]2O[C@@H]3COP(=O)(O)O[C@H]3[C@H]2O)c(=O)[nH]1 [cUMP, cyclic UMP]
- competition with cGMP for the cGMP binding sites ([1]; 3H-cGMP 2 μM, 22° C., 1 hour): did not compete with cGMP in binding

SMILES: CCCOc1ccccc1-c1nc2nn[nH]c2c(=O)[nH]1 [zaprinast]
- competition with cGMP for the cGMP binding sites ([1]; 3H-cGMP 2 μM, 22° C., 1 hour): None of the PDE5 inhibitors showed any competition with cGMP in binding
